Measurements taken from publication PMC4013053, “Identification of Selective Small Molecule Inhibitors of the Nucleotide-Binding Oligomerization Domain 1 (NOD1) Signaling Pathway” (PLoS ONE, 2014).
In brackets after ≈: the same amount, converted by molar mass. Where two headings read alike, the source gives them in different places.

What was measured:
NOD1 [1] = test system: NOD1; parameters: method as in PMID 22062585; conditions: read-out: NOD1 IC50 (nucleotide binding); cited from earlier work
NOD2 = test system: NOD2; parameters: method as in PMID 22549783; conditions: read-out: NOD2 IC50 (nucleotide binding); cited from earlier work
NOD1 [2] = target: T1, NOD1 (Homo sapiens, UniProt Q9Y239); assay: iE-DAP-stimulated IL-8 release in 293/hNOD1 cells; assay type: cell-based
T1 sequence (Q9Y239 1-953): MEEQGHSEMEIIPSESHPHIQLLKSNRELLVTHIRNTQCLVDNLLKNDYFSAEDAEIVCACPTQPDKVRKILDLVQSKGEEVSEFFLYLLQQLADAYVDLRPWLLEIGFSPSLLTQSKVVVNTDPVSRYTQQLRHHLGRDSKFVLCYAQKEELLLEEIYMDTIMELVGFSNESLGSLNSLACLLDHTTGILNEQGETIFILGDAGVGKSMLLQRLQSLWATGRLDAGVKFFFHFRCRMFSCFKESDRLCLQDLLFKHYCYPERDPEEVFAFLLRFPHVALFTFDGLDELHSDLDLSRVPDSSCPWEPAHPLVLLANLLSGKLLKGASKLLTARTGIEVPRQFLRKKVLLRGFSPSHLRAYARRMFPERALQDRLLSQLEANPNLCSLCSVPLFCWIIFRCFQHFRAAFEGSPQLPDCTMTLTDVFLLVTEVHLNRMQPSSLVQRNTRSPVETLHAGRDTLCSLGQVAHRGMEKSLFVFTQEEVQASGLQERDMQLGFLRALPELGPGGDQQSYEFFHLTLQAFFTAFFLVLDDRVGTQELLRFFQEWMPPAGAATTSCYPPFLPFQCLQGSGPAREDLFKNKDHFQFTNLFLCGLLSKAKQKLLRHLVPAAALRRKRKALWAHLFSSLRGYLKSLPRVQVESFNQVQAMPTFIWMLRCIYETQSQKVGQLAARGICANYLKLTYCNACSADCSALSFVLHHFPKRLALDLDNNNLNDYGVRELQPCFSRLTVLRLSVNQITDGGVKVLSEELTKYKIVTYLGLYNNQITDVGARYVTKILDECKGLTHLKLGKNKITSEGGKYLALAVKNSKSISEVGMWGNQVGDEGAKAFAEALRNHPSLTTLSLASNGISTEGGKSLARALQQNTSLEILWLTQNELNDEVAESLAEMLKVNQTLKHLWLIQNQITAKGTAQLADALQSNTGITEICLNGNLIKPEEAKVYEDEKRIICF
Procedure: Inhibitors of iE-DAP-stimulated IL-8 release were screened in a 1536-well assay in which 293/hNOD1 cells (5000 cells/well) in DMEM high glucose medium supplemented with 0.1% FBS and 10 µg/mL Blasticidin S were stimulated with 60 ng/mL (200 nM) iE-DAP (EC80) in the presence of 10 µM compounds. After 24 hours the amount of IL-8 secreted into the medium was determined by homogeneous time resolved fluorescence (HTRF) assay by the direct addition of a 1∶1 mix of europium cryptate and XL665-conjugated anti-IL-8 antibodies according to the manufacturer’s instructions (Cisbio). Fluorescence was measured after 2 hours in a ViewLux imager using UMB-AMC excitation and 618–671 nm emission filters (Perkin Elmer). […] Inhibition of TNFR1-induced IL-8 release was performed with 293/hNOD1 cells stimulated with 20 ng/mL (∼EC95) rhTNFα.
A high-throughput screen of about 2.2 million compounds was conducted for inhibitors of the NOD1 signaling pathway using suppression of iE-DAP stimulated IL-8 secretion in HEK293 cells stably expressing human NOD1 (293/hNOD1 cells). […] These assays were chosen to assess the selectivity of hits because the signaling pathways activated by these receptors converge at the level of the TAB/TAK1/IKK complex.

CLND solubility = assay type: physicochemical; conditions: phosphate buffered saline with 5% DMSO, pH 7.4, aqueous buffer, kinetic from dmso stock; 5% DMSO pH7.4 phosphate buffered saline
Excerpt: (§1) Physicochemical analyses of compounds were completed at GSK.

[3] = Chromatographic hydrophobicity index (Chrom log D); assay type: physicochemical; conditions: pH 7.4
Excerpt: as §1

[4] = Permeability across an artificial membrane; assay type: in vitro ADME; conditions: PAMPA
Excerpt: as §1

human serum albumin = human serum albumin (Homo sapiens, UniProt P02768); assay: Human serum albumin (HSA) binding; assay type: in vitro ADME
Excerpt: as §1

α1-acid glycoprotein = α1-acid glycoprotein (AGP) binding; assay type: in vitro ADME
Excerpt: as §1

[5] = Immobilized artificial membrane (IAM) binding; assay type: physicochemical
Excerpt: as §1

[6] = test system: NOD1 induced NF-κB and MAPK pathways; assay: Western blotting of IκBα and phospho-MAPKs in Tri-DAP stimulated 293/hNOD1 cells; assay type: cell-based, human; conditions: 50 µg/mL Tri-DAP 1 hour, immunoblotting
Procedure: Confluent cultures of 293/hNOD1 and -hNOD2 cells seeded in 24-well plates were serum-starved over-night, pre-incubated for 1 hour with compound and then stimulated for 1 hour with either 50 µg/mL Tri-DAP or 25 µg/mL MDP, respectively. Whole cell lysates were prepared in 1X cell lysis buffer (Cell Signaling Technology) supplemented with additional protease, aminopeptidase and phosphatase inhibitors (protease inhibitor cocktail set III, EMD Biosciences; phosphatase inhibitor sets II and III, Sigma-Aldrich). The levels of phosphorylated and total p38, JNK, ERK1/2 and total IκBα were determined by immunoblotting of ∼20 µg protein per sample using the following primary antibodies: phospho-p38 MAPK (12F8, #4631), p38 MAPK (#9212), phospho-JNK (#9251), JNK (#9252) and IκBα (#9242) all purchased from Cell Signaling Technology, and phospho-ERK1/2 (sc-7383) and ERK1/2 (sc-94) antibodies from Santa Cruz Biotechnology.

NOD1 [7] = conditions: HEK293T cells, read-out: IC50 NF-κB reporter, cited from earlier work
[8] = iE-DAP-stimulated IL-8 production in 293/hNOD1 cells, SAR figures, read-out: NOD1 XC50
[9] = HEK293 stably expressing human NOD1, IL-8 released into medium, read-out: IC50 293/hNOD1 iE-DAP

human serum albumin, sequence (P02768 25-609): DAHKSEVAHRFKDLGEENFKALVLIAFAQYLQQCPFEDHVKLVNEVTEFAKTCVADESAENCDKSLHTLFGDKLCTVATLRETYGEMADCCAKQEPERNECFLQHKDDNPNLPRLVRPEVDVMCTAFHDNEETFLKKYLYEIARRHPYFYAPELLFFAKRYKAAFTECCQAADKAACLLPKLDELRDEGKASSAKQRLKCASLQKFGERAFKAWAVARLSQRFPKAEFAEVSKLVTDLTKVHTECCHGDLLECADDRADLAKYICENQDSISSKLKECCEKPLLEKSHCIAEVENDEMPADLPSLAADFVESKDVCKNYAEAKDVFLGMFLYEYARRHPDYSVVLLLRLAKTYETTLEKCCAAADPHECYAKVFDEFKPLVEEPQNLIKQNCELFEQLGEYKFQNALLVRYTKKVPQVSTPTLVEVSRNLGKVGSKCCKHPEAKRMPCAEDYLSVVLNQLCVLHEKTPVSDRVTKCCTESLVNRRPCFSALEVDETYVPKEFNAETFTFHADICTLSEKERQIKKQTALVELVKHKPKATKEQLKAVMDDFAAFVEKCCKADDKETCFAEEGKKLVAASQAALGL

Compound: Nc1ncnc2c1ncn2[C@@H]1O[C@H](COP(=O)(O)OP(=O)(O)OP(=O)(O)O)[C@@H](O)[C@H]1O [ATP]
- IC50 (NOD1 [1]): ~15 nM
- IC50 (NOD2): ~60 nM

Compound: Cn1c(=O)[nH]c(=O)c2c1nc(SCCc1ccccc1)n2Cc1ccccc1 [Compound 1]
- IC50 (NOD1 [2]; [8]): 400 ± 80 nM

Compound: Cn1c(=O)[nH]c(=O)c2c1nc(CCCSc1ccccc1)n2Cc1ccccc1 [Compound 2]
- IC50 (NOD1 [2]; [8]): 2500 ± 1300 nM

Compound: CCCCCCSc1nc2c(c(=O)[nH]c(=O)n2C)n1Cc1ccccc1 [Compound 3]
- IC50 (NOD1 [2]; [8]): 4700 ± 1400 nM

Compound: Cn1c(=O)[nH]c(=O)c2c1nc(SCCCc1ccccc1)n2Cc1ccccc1 [Compound 4]
- IC50 (NOD1 [2]; [8]): 8700 ± 1500 nM

Compound: Cc1cccc(CSc2nc3c(c(=O)[nH]c(=O)n3C)n2Cc2ccccc2)c1 [Compound 5]
- IC50 (NOD1 [2]; [8]): 8900 ± 1600 nM

Compound: C/C=C/Cn1c(SCCc2ccccc2)nc2c1c(=O)[nH]c(=O)n2C [Compound 6]
- IC50 (NOD1 [2]; [8]): 9600 ± 2800 nM

Compound: Cn1c(=O)[nH]c(=O)c2c1nc(SCc1ccccc1)n2Cc1ccccc1 [Compound 7]
- IC50 (NOD1 [2]; [8]): 37300 ± 18100 nM

Compound: Cc1nc2ccccc2c(=O)n1-c1ccc(F)c(NS(=O)(=O)c2ccccc2F)c1 [Compound 8]
- IC50 (NOD1 [2]; [9]): 700 nM
- solubility (CLND solubility): 391 µM (≈ 167 µg/mL)
- chromatographic logD [3]: 3.24
- Papp [4]: 35 ×10⁻⁶ cm/s
- HSA binding (human serum albumin): 96.05%
- AGP binding (α1-acid glycoprotein): 80.38%
- IAM binding [5]: 1.42 log K

Compound: Cc1nc2ccccc2c(=O)n1-c1ccc(F)c(NS(=O)(=O)c2ccc(Cl)s2)c1 [Compound 9]
- IC50 (NOD1 [2]; [9]): 700 nM
- effect on Tri-DAP induced p-JNK, p-p38 and IκBα responses [6]: reduced both phospho-JNK and the weaker phospho-p38 levels while levels of IκBα were increased

Compound: Cc1nc2ccccc2c(=O)n1-c1ccc(F)c(NS(=O)(=O)c2ccc(F)cc2F)c1 [Compound 10]
- IC50 (NOD1 [2]; [8]): 2200 ± 3300 nM

Compound: Cc1ccc(S(=O)(=O)Nc2cc(-n3c(C)nc4ccccc4c3=O)ccc2F)cc1C [Compound 11]
- IC50 (NOD1 [2]; [8]): 1100 ± 700 nM

Compound: Cc1nc2ccccc2c(=O)n1-c1ccc(F)c(NS(=O)(=O)c2cc(Cl)ccc2Cl)c1 [Compound 12]
- IC50 (NOD1 [2]; [8]): 1200 ± 100 nM

Compound: Cc1nc2ccccc2c(=O)n1-c1ccc(F)c(NS(=O)(=O)c2cccs2)c1 [Compound 13]
- IC50 (NOD1 [2]; [8]): 2300 ± 1700 nM
- solubility (CLND solubility): 423 µM (≈ 176 µg/mL)
- chromatographic logD [3]: 2.87
- Papp [4]: 26 ×10⁻⁶ cm/s
- HSA binding (human serum albumin): 96.08%
- AGP binding (α1-acid glycoprotein): 81.23%
- IAM binding [5]: 1.36 log K

Compound: CCc1ccc(S(=O)(=O)Nc2cccc(-n3c(C)nc4ccccc4c3=O)c2)s1 [Compound 14]
- IC50 (NOD1 [2]; [9]): 15100 nM

Compound: Cc1ccc(S(=O)(=O)Nc2cccc(C(=O)Nc3nc4ccc([N+](=O)[O-])cc4s3)c2)cc1 [Compound 15]
- IC50 (NOD1 [2]; [9]): 200 nM
- IC50 (NOD1 [2]; [8]): 190 ± 30 nM

Compound: Cc1ccc(S(=O)(=O)Nc2cccc(C(=O)Nc3ccc4nc(C)sc4c3)c2)c(F)c1 [Compound 17]
- IC50 (NOD1 [2]; [8]): 760 ± 100 nM

Compound: CC(=O)Nc1ccc2nc(NC(=O)c3cccc(NS(=O)(=O)c4ccc(C)cc4)c3)sc2c1 [Compound 18]
- IC50 (NOD1 [2]; [8]): 1400 ± 300 nM

Compound: N#Cc1ccc(-c2csc(NC(=O)c3cccc(NS(=O)(=O)c4ccc(Cl)cc4)c3)n2)cc1 [Compound 19]
- IC50 (NOD1 [2]; [8]): 2000 ± 500 nM

Compound: COc1ccc(S(=O)(=O)Nc2cccc(C(=O)Nc3ccc4nc(C)sc4c3)c2)cc1 [Compound 20]
- IC50 (NOD1 [2]; [8]): 2300 ± 800 nM

Compound: O=C(Nc1ccc2c(c1)OCO2)c1cccc(NS(=O)(=O)c2ccc(Cl)cc2)c1 [Compound 21]
- IC50 (NOD1 [2]; [8]): 3700 ± 1400 nM
- solubility (CLND solubility): 46 µM (≈ 19.8 µg/mL)
- chromatographic logD [3]: 5.17
- Papp [4]: 23 ×10⁻⁶ cm/s
- HSA binding (human serum albumin): 98.01%
- AGP binding (α1-acid glycoprotein): 87.41%
- IAM binding [5]: 2.40 log K

Compound: Cc1nc2ccccc2c(=O)n1-c1ccc(Cl)c(NS(=O)(=O)c2ccc3c(c2)OCCO3)c1 [Compound 23]
- IC50 (NOD1 [2]; [8]): 100 ± 40 nM

Compound: Cc1ccc(S(=O)(=O)Nc2cc(-n3c(C)nc4ccccc4c3=O)ccc2Cl)cc1 [Compound 24]
- IC50 (NOD1 [2]; [8]): 200 ± 200 nM

Compound: COc1ccc(Cl)cc1S(=O)(=O)Nc1cc(-n2c(C)nc3ccccc3c2=O)ccc1Cl [Compound 25]
- IC50 (NOD1 [2]; [8]): 500 ± 100 nM

Compound: Cc1nc2ccc(Cl)cc2c(=O)n1-c1ccc(Cl)c(NS(=O)(=O)c2ccccc2F)c1 [Compound 26, N-(2-chloro-5-(6-chloro-2-methyl-4-oxoquinazolin-3(4H)-yl)phenyl)-2-fluorobenzenesulfonamide]
- IC50 (NOD1 [2]; [8]): 26 nM

Compound: Cc1nc2cc(Cl)ccc2c(=O)n1-c1ccc(Cl)c(NS(=O)(=O)c2ccccc2F)c1 [Compound 27, N-(2-chloro-5-(7-chloro-2-methyl-4-oxoquinazolin-3(4H)-yl)phenyl)-2-fluorobenzenesulfonamide]
- IC50 (NOD1 [2]; [8]): 2500 ± 1200 nM

Compound: Cc1nc(C)n(-c2ccc(Cl)c(NS(=O)(=O)c3ccccc3F)c2)c(=O)c1C [Compound 28, N-(2-chloro-5-(2,4,5-trimethyl-6-oxopyrimidin-1(6H)-yl)phenyl)-2-fluorobenzenesulfonamide]
- IC50 (NOD1 [2]; [8]): 3500 ± 500 nM

Compound: Cc1cc(=O)n(-c2ccc(Cl)c(NS(=O)(=O)c3ccccc3F)c2)c(C)n1 [Compound 29, N-(2-chloro-5-(2,4-dimethyl-6-oxopyrimidin-1(6H)-yl)phenyl)-2-fluorobenzenesulfonamide]
- IC50 (NOD1 [2]; [8]): 25000 ± 17500 nM

Compound: Cc1ccc(S(=O)(=O)n2c(N)nc3ccccc32)cc1 [ML130]
- IC50 (NOD1 [7]): 560 nM

Compound: C/C=C/Cn1c(SCCCc2ccccc2)nc2c1c(=O)[nH]c(=O)n2C [ML146]
- IC50 (NOD1 [7]; ref Magnuson et al, 2010): 1500 nM
